Test results published in US11034666B2, “Anti-inflammatory and antitumor 2-oxothiazoles and 2-oxothiophenes compounds” (Avexxin AS, priority 2013, dated 2021).

Experiments:
MAS98.12 xenograft = conditions: FIG. 1; data from an earlier study in the same animal model [13]; cited from earlier work
PGE2 [1] = assay: Plasma PGE2 EIA, therapeutic CIA study; type: in vivo, male DBA/1 mice; conditions: therapeutic CIA study; Compound A 30 mg/kg, Enbrel 25 mg/kg; vehicle 231.1±110; mean ± SD
Protocol: There were no significant differences between the treatment groups (p>0.05).
(§1) PGE2 EIA analysis of blood plasma from the prophylactic and therapeutic CIA studies was performed according to kit protocol. Plasma samples were diluted 1:1000-1:6000 in EIA buffer and allowed to hybridize over-night (18 hrs, 4° C.). The plate was read using a Multiscan plate reader (Ascent Labsystems) (OD550 nm). The corresponding Ascent software for Multiscan, Version 2.4.1 was used to obtain the data. PGE2 levels for all treatments are shown relative to the DMSO-treated vehicle arthritic mice (n=10-11 mice in each category±SD).
(§2) For the prophylactic and the therapeutic studies, CIA was induced in male DBA/1 mice (except naïve mice) by immunization with 0.1 mL emulsion containing an equal volume of bovine type II collagen solution (2 mg/mL) and Freuds Complete Adjuvant at the tail base. The first injection was given on Day 0 and the second injection as booster was given on Day 21 (41-43). COMPOUND A, vehicle (DMSO) and MTX (0.3 mg/kg) were administered daily, Enbrel (25 mg/kg) was administrated twice a week. For the prophylactic study, treatment started one hour before the second collagen injection and continued for 21 days except for the histology groups that were sacrificed at Day 13 ([…]). For the therapeutic study, treatment started at Day 28 and continued for 14 days.

[2] = system: collagen-induced arthritis (CIA) mouse model; assay: Therapeutic collagen-induced arthritis (CIA) study; type: in vivo, male DBA/1 mice; conditions: Days 36 to 41; Compound A 30 mg/kg ip daily; Enbrel 25 mg/kg twice a week
Excerpt: The therapeutic effect of Compound A on CIA model in male DBA/1 mice following ip administration, treatment starting 7 days after the last immunization was explored. CIA developed rapidly in mice immunized with CII, with maximum AI of 10.2 observed at 39 days post immunization. The AI and incidence of vehicle- and Compound A treated groups increased in a time-dependent mode from Days 29 to 41. […] Compound A and Enbrel performed equally well; there were no significant difference between these treatments groups.
Separate prophylactic and therapeutic efficacy studies of COMPOUND A were performed. […] Body weights were measured and recorded prior to randomization and then once daily during the study. Food consumption was measured and recorded daily. […] Necropsy examinations were performed at study termination; plasma samples were collected, organ weights were recorded […]
CIA Assessment and Treatment. CIA was assessed in mice by two blinded observers to measure paw swelling with a capacity measurement method on Day 0, Day 20, Day 22, Day 25, Day 27, Day 29, Day 32, Day 34, Day 36, Day 39 and Day 41 after the first injection. […] However, the values measured were not included in the mean value calculations of the main groups. […]

[3] = system: rat streptozocin-induced model of human chronic renal disease; assay: Rat streptozocin-induced model of human chronic renal disease, urine protein; type: in vivo, Sprague Dawley rats; conditions: AVX235 10 mg/kg ip; losartan 30 mg/kg oral gavage daily; 2 weeks
Protocol: The therapeutic effect of AVX235 was tested in the rat streptozocin-induced model of human chronic renal disease and compared against losartan (positive control).
Sprague Dawley rats (Harlan laboratories, USA) of an average weight of 130-150 grams were divided in groups of 8 animals per group and were treated according to table 7:
AVX235 was injected intraperitoneally, once daily for the first 4 days and then every two days. Losartan was administered daily, by oral gavage. At 2 weeks post experiment initiation, urine was collected over a period of 24 h and total protein in mg was measured.

PGE2 [4] = assay: Plasma PGE2 EIA, prophylactic CIA study; type: in vivo, male DBA/1 mice; conditions: prophylactic CIA study; Compound A 7.5 mg/kg, MTX 0.3 mg/kg; vehicle 223.4±107; mean ± SD
Protocol: PGE2 is recognized as an important contributor to the joint inflammation in rheumatoid arthritis,^60 and we investigated if plasma PGE2 levels were changed in response to treatment. […] There were no significant differences between the treatment groups (p>0.05).
as §1, §2

[5] = system: collagen-induced arthritis (CIA) mouse model; assay: Prophylactic collagen-induced arthritis (CIA) study; type: in vivo, male DBA/1 mice
Protocol: The prophylactic effect of Compound A on CIA model in male DBA/1 mice^57 following intraperitoneal (ip) administration, treatment starting 1 hour prior to the last immunization was studied. A study comparing naïve mice (healthy, non-CIA, non-treated), vehicle-treated mice (CIA with DMSO, ip) and CIA mice treated daily with Compound A (7.5 mg/kg, ip) or MTX (0.3 mg/kg, ip) was performed. CIA developed rapidly in mice immunized with CII. In the prophylactic study, a 100% incidence of CIA was observed by day 29 in CII-immunized mice, with maximum AI of 8.55 observed at 41 days post immunization. The AI and incidence of all groups increased in a time-dependent mode from day 25 to day 41.
Separate prophylactic and therapeutic efficacy studies of COMPOUND A were performed. Methotrexate (MTX) (Jiangsu Hengrui Medicine Co, #11041411), Enbrel (Boehringer Ingelheim Pharma KG, # F39487), and vehicle (DMSO 100%, Sigma Aldrich # D2650) were administered to all groups via intraperitoneal injection once daily at a dose volume of 2 mL/kg. Observations for morbidity, mortality, injury, and the availability of food and water were conducted twice daily for all animals. Clinical observations were conducted daily during the study. Body weights were measured and recorded prior to randomization and then once daily during the study. Food consumption was measured and recorded daily. Biopsies for mid-term histology analysis were obtained on Day 13 in the prophylactic study. Necropsy examinations were performed at study termination; plasma samples were collected, organ weights were recorded
as §2
CIA Assessment and Treatment. CIA was assessed in mice by two blinded observers to measure paw swelling with a capacity measurement method on Day 0, Day 20, Day 22, Day 25, Day 27, Day 29, Day 32, Day 34, Day 36, Day 39 and Day 41 after the first injection. The occurrence of arthritis was observed by scoring all paws for severity of erythema and swelling, using a clinical score ranging from 0 (no swelling) to 4 (severe swelling and erythema). The physical condition of the animals was observed daily. Scores and overall evaluation of the histology group arms were performed in the same way as the main groups. However, the values measured were not included in the mean value calculations of the main groups. The YLS-7B Foot Volume Measuring Instrument (Huaibei China Bio Equipment) was used to measure the foot volume of mice. The occurrence of arthritis was observed by scoring all paws for severity of erythema and swelling, using a clinical score ranging from 0 (no swelling) to 4 (severe swelling and erythema), i.e. yielding maximum arthritic index (AI) score 16 (46).
Measurement of the histopathology and clinical observations. At the end of the studies, one hind foot of each mouse was collected for histopathology. The foot including the ankle was fixed in 10% neutral formalin. The ankle joints were decalcified, dehydrated, embedded in paraffin, sectioned and stained with routine hematoxylin-eosin. The sections were studied using light microscopy (10×10 and 20×10 magnifications). Arthritis damage (histological damage score) was evaluated and scored by an investigator blinded for the treatment regimen. […]

[6] = hind paw, Compound A 7.5 mg/kg, MTX 0.3 mg/kg

**Q.** For Cn1c(=O)n(-c2ccc(C(C)(C)C#N)cc2)c2c3cc(-c4cnc5ccccc5c4)ccc3ncc21 [BEZ235], which “tumor volume (in words)” value (MAS98.12 xenograft) is on record?
**A.** tumor volumes are reduced

**Q.** For Enbrel, which “plasma PGE2 level” value (PGE2 [1]) is on record?
**A.** 187.5 ± 74 ng/mL

**Q.** And the “arthritic index (AI) in comparison to the CIA control group (in words)” value [2]?
**A.** significantly decreased

**Q.** For CCCCc1nc(Cl)c(CO)n1Cc1ccc(-c2ccccc2-c2nn[nH]n2)cc1 [losartan], which “therapeutic effect on STZ-induced urine protein (in words)” value [3] is on record?
**A.** protected rats from the STZ effect

**Q.** Which “plasma PGE2 level” value (PGE2 [4]) does the source give for CN(Cc1cnc2nc(N)nc(N)c2n1)c1ccc(C(=O)N[C@@H](CCC(=O)O)C(=O)O)cc1 [MTX, Methotrexate, reference compound] here?
**A.** 107.3 ± 62 ng/mL

**Q.** And the “arthritic index (AI) in comparison to the CIA control group (in words)” value ([5]; Days 32 to 41, Compound A 7.5 mg/kg ip daily, MTX 0.3 mg/kg ip daily)?
**A.** significantly reduced

**Q.** And the “articular cavity and peripheral tissue inflammatory cell infiltration, histopathology vs vehicle (in words)” value [5, 6]?
**A.** did not reduce

**Q.** What about the “capillary and synovial hyperplasia, histopathology vs vehicle (in words)” value [5, 6] of the same compound?
**A.** did not reduce

**Q.** And the “cartilage damage, histopathology vs vehicle (in words)” value [5, 6]?
**A.** did not reduce
